Experimental findings from patent publication US7183445B2, “Cyclohexyl derivatives as selective estrogen receptor modulators” (Janssen Pharmaceutica N.V, priority 2004, dated 2007) are described below.

Test [1] deals with MCF-7 cells. Kind of test: MCF-7 Cell Proliferation Assay. The format is cell-based. On the procedure: MCF-7 Cell Proliferation Assay
This assay was run according to the procedure described by Welshons, et al., (Breast Cancer Res. Treat., 1987, 10(2), 169–75), with minor modification.
Briefly, MCF-7 cells (from Dr. C. Jordan, Northwestern University) were maintained in RPMI 1640 phenol red free medium (Gibco) in 10% FBS (Hyclone), supplemented with bovine insulin and non-essential amino acid (Sigma). The cells were initially treated with 4-hydroxytamoxifen (10^−8 M) and let stand at 37° C. for 24 hours. Following this incubation with tamoxifen, the cells were treated with compounds at various concentrations.
Compounds to be tested in the agonist mode were added to the culture media at varying concentrations. Compounds to be treated in the antagonist mode were prepared similarly, and 10 nM 17β-estradiol was also added to the culture media. The cells were incubated for 24 hours at 37° C. Following this incubation, 0.1 μCi of ^14C-thymidine (56mCi/mmol, Amersham) was added to the culture media and the cells were incubated for an additional 24 hours at 37° C. The cells were then washed twice with Hank's buffered salt solution (HBSS) (Gibco) and counted with a scintillation counter. The increase in the ^14C-thymidine in the compound treated cells relative to the vehicle control cells were reported as percent increase in cell proliferation.
(§1) Representative compound of the present invention were tested according to the procedure described in Examples 14 and 15 above, with results as listed in Table. 7.

Test [2] deals with T1, human estrogen receptor α (Homo sapiens, UniProt P03372).
T1 construct: purchased Panvera
T1 sequence (P03372 1-595): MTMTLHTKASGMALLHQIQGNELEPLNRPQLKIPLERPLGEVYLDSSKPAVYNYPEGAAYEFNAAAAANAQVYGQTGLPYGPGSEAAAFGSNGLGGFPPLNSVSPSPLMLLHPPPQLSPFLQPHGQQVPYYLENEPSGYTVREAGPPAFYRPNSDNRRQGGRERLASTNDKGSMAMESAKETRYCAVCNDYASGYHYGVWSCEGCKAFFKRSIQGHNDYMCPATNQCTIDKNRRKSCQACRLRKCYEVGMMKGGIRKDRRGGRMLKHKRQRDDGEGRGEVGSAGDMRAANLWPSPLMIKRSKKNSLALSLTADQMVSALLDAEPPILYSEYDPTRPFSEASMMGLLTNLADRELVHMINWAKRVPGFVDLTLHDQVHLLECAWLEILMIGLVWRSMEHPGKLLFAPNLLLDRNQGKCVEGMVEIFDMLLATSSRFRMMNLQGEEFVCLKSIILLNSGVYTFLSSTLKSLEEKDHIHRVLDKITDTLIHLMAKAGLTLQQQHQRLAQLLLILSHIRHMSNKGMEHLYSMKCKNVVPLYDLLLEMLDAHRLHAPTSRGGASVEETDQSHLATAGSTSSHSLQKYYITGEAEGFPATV
Kind of test: Estrogen Receptor α Flash Plate Assay. The following applies: displacement of radio-labeled estrogen, FlashPlate; read-out: ERα Binding IC50. On the procedure:
Estrogen Receptor α Flash Plate Assay
This assay monitors binding of radio-labeled estrogen to the estrogen receptor. It is performed on a BioMek 2000 (Beckman). Plates are read in a scintillation counter (Packard TopCount), with decreased counts an indication of binding of a compound to the receptor. The assay was run according to the procedure described by Allan, et al., Anal. Biochem. (1999), 275(2), 243–247.
On day one, 100 μL of Estrogen Screening Buffer (ESB, Panvera) containing 5 mM dithiothreitol (DTT, Panvera), 0.5 μg mouse anti-estrogen receptor monoclonal antibody (SRA-1010, Stressgen) and 50 ng purified human estrogen receptor α (Panvera) were added to each well of a 96 well FlashPlate Plus plate crosslinked with goat anti-mouse antibodies (NEN Life Sciences). The plate was sealed and incubated at 4° C. overnight.
On day two, each well was washed three times with 200 μL PBS, pH 7.2, at room temperature. To each well was then added 98 μL radio-labeled estrogen (0.5 nM, which equals 6 nCi for a 120 Ci/mmol batch, Amersham), diluted in ESB and 5 mM dithiothreitol (DTT). To individual wells were then added 2.5 μL test compound diluted in 30% (v/v) dimethyl sulfoxide/50 mM HEPES, pH 7.5. The wells were mixed three times by aspiration, the plate sealed and incubated at room temperature for one hour. The wells were then counted for 1 min in a TopCount scintillation counter (Packard).
(§2) Representative compound of the present invention were tested according to the procedure described above for binding to the Estrogen Receptor α and Estrogen Receptor β, with results as listed in Table 6.

Test [3] has as its system Human Endometrial Ishikawa Cells. Kind of test: Alkaline Phosphatase Assay in Human Endometrial Ishikawa Cells. Type of test: cell-based. The following applies: for EC50: read-out: Ishikawa Agonist EC50; for IC50: read-out: Ishikawa Antagonist IC50. On the procedure: Alkaline Phosphatase Assay in Human Endometrial Ishikawa Cells
This assay was run according to the procedure described by Albert et a., Cancer Res, […], 50(11), 330-6-10, with minor modification.
Ishikawa cells (from ATCC) were maintained in DMEM/F12 (1:1) phenol red free medium (Gibco) supplemented with 10% calf serum (Hyclone). 24 hours prior to testing, the medium was changed to DMEM/F12 (1:1) phenol red free containing 2% calf serum.
Compounds to be tested in the agonist mode were added to the culture media at varying concentrations. Compounds to be treated in the antagonist mode were prepared similarly, and 10 nM 17β-estradiol was also added to the culture media. The cells were then incubated at 37° C. for 3 days. On the fourth day, the media was remove, 1 volume of 1× Dilution Buffer (Clontech) was added to the well followed by addition of 1 volume of Assay Buffer (Clontech). The cells were then incubated at room temperature for 5 minutes. 1 volume of freshly prepared Chemiluminescence Buffer (1 volume of chemiluminescent substrate (CSPD) in 19 volume Chemiluminescent Enhancer with final concentration of CSPD at 1.25 mM; Sigma Chemical Co.) was added. The cells were incubated at room temperature for 10 minutes and then quantified on a luminometer. The increase of chemiluminescence over vehicle control was used to calculate the increase in alkaline phosphatase activity.
as §1

For test [4], the target named is T2, hER-β (Homo sapiens, UniProt Q92731).
T2 construct: purchased Panvera
T2 sequence (Q92731 whole entry): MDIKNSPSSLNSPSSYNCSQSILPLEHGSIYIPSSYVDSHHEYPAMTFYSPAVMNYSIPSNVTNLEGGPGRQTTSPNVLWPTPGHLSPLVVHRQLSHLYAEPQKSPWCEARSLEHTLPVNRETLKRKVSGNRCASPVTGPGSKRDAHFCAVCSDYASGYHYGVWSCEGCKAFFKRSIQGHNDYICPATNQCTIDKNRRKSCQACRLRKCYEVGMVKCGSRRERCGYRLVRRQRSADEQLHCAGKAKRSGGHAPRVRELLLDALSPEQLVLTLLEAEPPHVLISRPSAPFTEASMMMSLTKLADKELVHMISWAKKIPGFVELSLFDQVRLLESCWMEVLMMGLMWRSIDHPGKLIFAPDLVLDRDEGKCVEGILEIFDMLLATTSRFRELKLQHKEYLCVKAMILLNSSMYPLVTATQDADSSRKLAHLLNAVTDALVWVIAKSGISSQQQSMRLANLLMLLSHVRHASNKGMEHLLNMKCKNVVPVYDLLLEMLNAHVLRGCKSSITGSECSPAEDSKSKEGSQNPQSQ
Description: Estrogen Receptor β Fluorescence Polarization Assay. The following applies: displacement of Fluormone ES2, fluorescence polarization; read-out: ERβ Binding IC50.
Source text: Estrogen Receptor β Fluorescence Polarization Assay
This assay monitors binding of a fluorescent analog of estrogen (Fluormone ES2, Panvera) to the estrogen receptor. Plates are read in a fluorometer that can be set to polarization mode. A decrease in […] relative to vehicle control is an indication of binding of a compound to the receptor.
It is crucial to avoid introduction of air bubbles into the reaction in each well of the 96 well plate throughout this procedure. (Bubbles on the surface of the reaction disrupt light flow, affecting the polarization reading.) However, it is also crucial to effectively mix the reaction components upon addition to the well.
On ice, a 2× standard mixture of Assay Buffer (Panvera), 10 nM DTT and 40 nM ES2 was prepared. On ice, a 2× reaction mixture of Assay Buffer (Panvera), and 20 nM hER-β (Panvera) and 40 nM ES2 was also prepared.
Dilutions of test compound were prepared in 30% (v/v) dimethyl sulfoxide/50 mM HEPES, pH 7.5. At this point, the dilutions were 40× the final required concentration.
The standard mixture at 50 μL was then added to each well. The reaction mixture at 48 μL was added to all wells. The compound dilution at 2.5 μL was added to the appropriate wells. The reaction mixtures were mixed using a manual pipette, a roll of aluminum foil adhesive cover was placed on the plate and the plate incubated at room temperature for 1 hour.
Each well on the plate was then read in an LjL Analyst with an excitation wavelength of […] and an emission wavelength of 538.
as §2
(Fluorescence polarisation rises when a labelled molecule tumbles more slowly, as on binding a larger partner.)

The mark [5] stands for this setting: Homo sapiens, MCF7, agonist mode, 14C-thymidine incorporation, read-out: MCF7 Agonist EC50.
[6] abbreviates: Homo sapiens, MCF7, antagonist mode, 10 nM 17β-estradiol added, 14C-thymidine incorporation, read-out: MCF7 Antagonist IC50.
Where [7] appears, read: Homo sapiens, Ishikawa, 72 h, agonist mode, alkaline phosphatase activity, 3 days.
[8] abbreviates: Homo sapiens, Ishikawa, 72 h, antagonist mode, 10 nM 17β-estradiol added, alkaline phosphatase activity, 3 days.

“And” between values parts separate entries of the source, which are not always exact repeats. Equal entries are not always repeated. Where two headings read alike, the source gives them in different places.

Regarding `OC[C@@H]1CC(c2ccccc2)=C(c2ccccc2)C[C@@H]1CO` [Compound 18], the EC50 in test [1] (setting [5]) and in test [3] (setting [7]) was over 10 µM throughout. In addition, the half-inhibitory concentration (IC50) in test [1] (setting [6]) is over 10 µM; in test [2], over 10 µM; in test [3] (setting [8]), over 10 µM; in test [4], under 10 µM.
Consider `CN(C)CCOc1ccc(C2=C(c3ccc(O)cc3)CCC(C)(CO)C2)cc1` (centres unmarked) [Compound 3, 4-{2-[4-(2-Dimethylamino-ethoxy)-phenyl]-4-hydroxymethyl-4-methyl-cyclohex-1-enyl}-phenol], for which the IC50 in test [2] was 6.1 µM; in test [4], 5.7 µM.
In the same order, the values of `CC1=C(C)CC(C)(CO)C(C)C1` (centres unmarked) [Compound 36] are over 10 µM and 6.9 µM.
On to `O=C1CCCC2CC(c3ccccc3)=C(c3ccccc3)CC12` (centres unmarked) [Compound 56, 6,7-Diphenyl-3,4,4a,5,8,8a-hexahydro-2H-naphthalen-1-one], for which the EC50 in test [1] (setting [5]) and in test [3] (setting [7]) was over 10 µM throughout. Further, the IC50 in test [1] (setting [6]) and in test [3] (setting [8]) was over 10 µM each time.
Take `CCC1C(C)C(CO)CC(c2ccc(OC)cc2)C1c1ccc(O)cc1` (centres unmarked) [Compound 4, 4-[2-Ethyl-4-hydroxymethyl-6-(4-methoxy-phenyl)-3-methyl-cyclohexyl]-phenol]: the EC50 was over 10 µM in test [1] (Homo sapiens, MCF7, read-out: MCF7 Agonist EC50) and over 10 µM in test [3] (Homo sapiens, Ishikawa, 72 h). The IC50 is over 10 µM in test [1] (Homo sapiens, MCF7, read-out: MCF7 Antagonist IC50); over 10 µM in test [2]; over 10 µM in test [3] (Homo sapiens, Ishikawa, 72 h); 1.6 µM in test [4].
Consider `CCC1C(c2ccc(O)cc2)=C(c2ccc(OC)cc2)CC(CO)C1C` (centres unmarked) [Compound 20, 4-[6-Ethyl-4-hydroxymethyl-2-(4-methoxy-phenyl)-5-methyl-cyclohex-1-enyl]-phenol], for which the EC50 in test [1] (setting [5]) amounted to 0.48 µM; in test [3] (setting [7]), 0.7 µM. Moreover, the IC50 was over 10 µM in test [1] (setting [6]), 1.85 µM in test [2], 4.5 µM in test [3] (setting [8]) and 0.1 µM in test [4].
For the compound `CCOC(=O)C1CC=C(c2ccc(OC)cc2)C(Cc2ccc(OCCN3CCCCC3)cc2)C1C` (centres unmarked) [Compound 39], the EC50 in test [1] (setting [5]) and in test [3] (setting [7]) was over 10 µM each time. Moreover, the IC50 in test [1] (setting [6]), in test [2], in test [3] (setting [8]) and in test [4] was over 10 µM in each case.
As to `CC1(CO)CC=C(c2ccc(O)cc2)CC1` (centres unmarked) [Compound 25, 4-(4-Hydroxymethyl-4-methyl-cyclohex-1-enyl)-phenol], the EC50 in test [1] (setting [5]) was determined as 0.2 µM; in test [3] (setting [7]), 0.1 µM. For the same compound, the IC50 in test [1] (setting [6]) is over 10 µM; in test [2], 0.45 µM; in test [3] (setting [8]) it was 10 µM; in test [4], 0.35 µM.
Take “4-(4-Hydroxy-phenyl)-[4-(2-morpholin-4-yl-ethoxy)-benzyl]-methyl-cyclohex-3-enecarboxylic acid ethyl ester [Compound 38]”: the EC50 in test [1] (agonist mode, 14C-thymidine incorporation, read-out: MCF7 Agonist EC50) is over 10 µM; in test [3] (agonist mode, alkaline phosphatase activity, 3 days) it was over 10 µM. The IC50 was 5 µM in test [1] (antagonist mode, 10 nM 17β-estradiol added, 14C-thymidine incorporation, read-out: MCF7 Antagonist IC50); 2.1 µM in test [3] (antagonist mode, 10 nM 17β-estradiol added, alkaline phosphatase activity, 3 days); 0.9 µM and 0.5 µM in test [4].
As to `c1ccc(C2=C(c3ccccc3)CC3COCC3C2)cc1` (centres unmarked) [Compound 52], the EC50 in test [1] (setting [5]) and in test [3] (setting [7]) was over 10 µM each time. Also, the IC50 in test [1] (setting [6]) is over 10 µM; in test [2] it was over 10 µM; in test [3] (setting [8]), over 10 µM; in test [4], 5.7 µM.
Turning to `COc1ccc(C2=C(c3ccc(OC)cc3)CC(CO)C(CO)C2)cc1` (centres unmarked) [Compound 26, [6-Hydroxymethyl-3,4-bis-(4-methoxy-phenyl)-cyclohex-3-enyl]-methanol], the EC50 in test [1] (setting [5]) and in test [3] (setting [7]) was over 10 µM in each case. In addition, the IC50 in test [1] (setting [6]), in test [2], in test [3] (setting [8]) and in test [4] was over 10 µM throughout.
In the case of `CC1C(CO)CC=C(c2ccc(O)cc2)C1Cc1ccc(OCCN2CCCCC2)cc1` (centres unmarked) [Compound 74], the values for the IC50 in test [2] and in test [4] were 0.37 µM and 0.38 µM, respectively.
With `COc1ccc(C2=C(c3ccc(OC)cc3)C[C@H]3[C@H](CC[C@H]3O)C2)cc1` [Compound 57, 5,6-Bis-(4-methoxy-phenyl)-2,3,3a,4,7,7a-hexahydro-1H-inden-1R-ol], the IC50 in test [2] is over 10 µM; in test [4], 4.9 µM.

For orientation: EC50 means the concentration giving half of the maximal effect. By IC50 is commonly meant the concentration that gives 50% inhibition.
